Data reported in patent publication US20090105119A1, “ASPARAGINE-10-SUBSTITUTED NONADEPSIPEPTIDES” (priority 2006, published 2009).
In brackets after ≈: the same amount, converted by molar mass. Where two headings read alike, the source gives them in different places. *1 amine or outer side, *2 acyl side, *3 side chain or, on linkers, in order; H or OH if unused. Where a SMILES comes first, the peptide text is derived from it. Bridges are numbered along the chain shown (N, C = ends). [ ]: non-standard residue; d: D form. Phe(3R-OH) = O=C([C@@H](N[*:1])[C@H](O[*:3])c1ccccc1)[*:2]; X7 = O=C(NCc1ccccc1)[C@@H](O)[C@H](N[*:1])C(=O)[*:2]; X2 = O=C(NCCO)[C@@H](O)[C@H](N[*:1])C(=O)[*:2]; X1 = CNC(=O)[C@@H](O)[C@H](N[*:1])C(=O)[*:2]; Leu(3R-OH) = CC(C)[C@@H](O)[C@H](N)C(=O)O; aThr = C[C@H](O)[C@H](N)C(=O)O

What was measured:
[1] = Determination of the free fraction (fu) in plasma; format: in vitro ADME; conditions: human
Procedure: (§1) Principle of the Determination of the Free Fraction Via Transil:
(§2) The method described here for determining the free fraction (fu) of a test substance is divided into 2 parts:
(§3) a) Determination of the Transil®/buffer distribution ratio (MAbuffer) by incubating the test substance in a Transil®-buffer (pH 7.4) dispersion and subsequently determining the concentration in the dispersion and in the buffer supernatant.
(§4) b) Determination of the Transil®/plasma distribution ratio (MAplasma) by incubating the test substance in a Transil®-plasma dispersion and subsequently determining the concentration in the dispersion and in the plasma.
(§5) The quotient of the two distribution ratios yields fu.
(§6) In the case of highly protein-bound substances, the plasma is usually diluted with isotonic phosphate buffer (pH 7.4) and then suspended with Transil®. The determination of fu′ (free fraction in diluted plasma) in this diluted protein solution takes place in analogy to the determination of fu. The free fraction in undiluted plasma is calculated from fu′ and the dilution factor.
(§7) Concerning this method, compare also: Schuhmacher, Joachim; Kohlsdorfer, Christian; Buehner, Klaus; Brandenburger, Tim; Kruk, Renate, “High-throughput determination of the free fraction of drugs strongly bound to plasma proteins.” Journal of Pharmaceutical Sciences 2004, 93, 816-830.
(§8) Determination of the Membrane Affinity of a Test Substance after Distribution Between Transil® and Buffer (MAbuffer):
(§9) All incubations are carried out in suitable glass vessels, e.g. glass vials, ground-socket test tubes. In general the total volume is 0.5-5 ml, and the Transil® volume 10-100 μl. In cases where the membrane affinities are expected to be high, the Transil® dispersion can be diluted up to 20-fold with phosphate buffer of pH 7.4, e.g. Dulbecco's PBS. Phosphate buffer of pH 7.4 is provided in the incubation vessels, and the Transil® is pipetted in, after thorough mixing. The test substance is pipetted in at a concentration of, for example, 200 ng/mL, n=6. The proportion of organic solvent should be <2%. The mixtures are incubated at room temperature for 30 min, e.g. on a mini-shaker at an angle of about 45°, at about 400 rpm. In order to determine the 100% value at least one aliquot of, for example, 100 μl, is removed and the remaining mixture is centrifuged at about 1800 g for about 10 min. At least 2 aliquots (e.g. 100 μl) of the supernatant are removed from each sample for the determination of the concentration.
(§10) Determination of MAplasma in Undiluted or Diluted Plasma:
(§11) The total incubation volume and the added volume of Transil® depend on the expected free fraction. In general the total volume is 0.5-1 ml, and the Transil® volume is 10-100 μl. In cases where the free fractions are very low, the plasma of the species to be investigated is diluted, with isotonic buffer solution, pH 7.4, e.g. 10-400-fold, and the Transil® is then added. The subsequent procedure takes place as described above for the determination of the MAbuffer values. […]
(§12) The plasma of the species to be investigated is filtered through a semipermeable membrane. The substance concentration in the filtrate is measured and the free fraction fu is calculated therefrom. […] The substance concentration in the ultrafiltrate (Cu; unbound substance concentration) and in the plasma before centrifugation (C; total substance concentration) is measured. The free fraction is calculated by the formula: fu (%)=Cu/C*100.

[2] = test system: Staphylococcus aureus 133; format: cell-based; conditions: Isosensitest medium, 10^5 microbes per ml, 37° C., 18-24 hours
Procedure: (§13) Determination of the Minimum Inhibitory Concentration (MIC):
(§14) The MIC is determined in the liquid dilution test in accordance with the NCCLS guidelines. Overnight cultures of Staphylococcus aureus 133, Enterococcus faecalis 27159, E. faecium 4147 and Streptococcus pneumoniae G9a are incubated with the described test substances in a 1:2 dilution series. The MIC determination is carried out with a cell count of 10^5 microbes per ml in Isosensitest medium (Difco, Irvine/USA), with the exception of S. pneumoniae which is tested in BHI broth (Difco, Irvine/USA) with 10% bovine serum with a cell count of 10^6 microbes per ml. The cultures are incubated at 37° C. for 18-24 hours, S. pneumoniae in the presence of 10% CO2.
(§15) The MIC is defined as the lowest concentration of each substance at which no visible bacterial growth occurs any longer. The MIC values are reported in μg/ml.

[3] = test system: Streptococcus pneumoniae G9a; format: cell-based; conditions: BHI broth with 10% bovine serum, 10^6 microbes per ml, 10% CO2, 37° C., 18-24 hours
Procedure: as §13, §14, §15

[4] = test system: E. faecalis ICB 27159; format: cell-based, Enterococcus faecalis; conditions: Isosensitest medium, 10^5 microbes per ml, 37° C., 18-24 hours
Procedure: as §13, §14, §15

[5] = Determination of the free fraction (fu) in plasma; format: in vitro ADME, rat; conditions: pH 7.4
Procedure: as §1, §2, §3, §4, §5, §6, §7, §8, §9, §10, §11, §12

[6] = read-out: Free fraction (human plasma)
[7] = rat plasma, read-out: Free fraction (rat plasma)

| SMILES | fraction unbound at 30 min [1, 6] | MIC S. aureus 133 [2] [µg/mL] | MIC S. pneumoniae G9a [3] [µg/mL] | MIC E. faecalis ICB 27159 [4] [µg/mL] | fraction unbound at 30 min, 200 ng/mL [5, 7] | fraction unbound at 30 min [1] | fraction unbound at 30 min, 200 ng/mL ([5]; rat, plasma) |
| --- | --- | --- | --- | --- | --- | --- | --- |
| CC[C@H](C)[C@@H]1NC(=O)[C@@H](CCCNC(=N)N)NC(=O)[C@H](CC(C)C)NC(=O)[C@H]([C@H](O)C(C)C)NC(=O)[C@@H](NC(=O)[C@H](CC(C)C)NC(=O)[C@H](N)CC(C)C)[C@@H](c2ccccc2)OC(=O)[C@H](CO)NC(=O)[C@H]([C@H](O)C(=O)NC)NC(=O)CNC(=O)[C@H]([C@H](C)O)NC1=O [Example 3, N^4.10-Methyl-D-leucyl-L-leucyl-[(3R)-3-hydroxy-L-phenylalanyl]-[(3R)-3-hydroxy-L-leucyl]-L-leucyl-D-arginyl-L-isoleucyl-L-allothreonylglycyl-[(3S)-3-hydroxy-L-asparaginyl]-L-serine C^1.11—O^3.3-lactone Bistrifluoroacetate] (H-[dL]L[Phe(3R-OH)][Leu(3R-OH)]L[dR]I[aThr]G[X1]S; ester 3-C) | 0.051 | 0.25 (≈ 0.194 µM) | 0.5 (≈ 0.387 µM) | 2 (≈ 1.55 µM) | 0.129 |  |  |
| CC[C@H](C)[C@@H]1NC(=O)[C@@H](CCCNC(=N)N)NC(=O)[C@H](CC(C)C)NC(=O)[C@H]([C@H](O)C(C)C)NC(=O)[C@@H](NC(=O)[C@H](CC(C)C)NC(=O)[C@H](N)CC(C)C)[C@@H](c2ccccc2)OC(=O)[C@H](CO)NC(=O)[C@H]([C@H](O)C(=O)NCCO)NC(=O)CNC(=O)[C@H]([C@H](C)O)NC1=O [Example 2, N^4.10-(2-Hydroxyethyl)-D-leucyl-L-leucyl-[(3R)-3-hydroxy-L-phenylalanyl]-[(3R)-3-hydroxy-L-leucyl]-L-leucyl-D-arginyl-L-isoleucyl-L-allothreonylglycyl-[(3S)-3-hydroxy-L-asparaginyl]-L-serine C^1.11—O^3.3-lactone Bistrifluoroacetate] (H-[dL]L[Phe(3R-OH)][Leu(3R-OH)]L[dR]I[aThr]G[X2]S; ester 3-C) | 0.099 | 1 (≈ 0.757 µM) | 2 (≈ 1.51 µM) | 16 (≈ 12.1 µM) | 0.137 |  |  |
| CC[C@H](C)[C@@H]1NC(=O)[C@@H](CCCNC(=N)N)NC(=O)[C@H](CC(C)C)NC(=O)[C@H]([C@H](O)C(C)C)NC(=O)[C@@H](NC(=O)[C@H](CC(C)C)NC(=O)[C@H](N)CC(C)C)[C@@H](c2ccccc2)OC(=O)[C@H](CO)NC(=O)[C@H]([C@H](O)C(=O)NCc2ccccc2)NC(=O)CNC(=O)[C@H]([C@H](C)O)NC1=O [Example 6, N^4.10-Benzyl-D-leucyl-L-leucyl-[(3R)-3-hydroxy-L-phenylalanyl]-[(3R)-3-hydroxy-L-leucyl]-L-leucyl-D-arginyl-L-isoleucyl-L-allothreonylglycyl-[(3S)-3-hydroxy-L-asparaginyl]-L-serine C^1.11—O^3.3-lactone Bistrifluoroacetate] (H-[dL]L[Phe(3R-OH)][Leu(3R-OH)]L[dR]I[aThr]G[X7]S; ester 3-C) |  |  |  |  |  | 0.026 | 0.07 |
